Experimental data: patent US9045491B2, “Thienyl [3,2-D] pyrimidin-4-one compounds, preparation method, pharmaceutical compositions and use thereof” (SHANGHAI INSTITUTE OF MATERIA MEDICA, CHINESE ACADEMY OF …, priority 2011, dated 2015)

Columns and labels:
DPP IV = molecular target: T1, DPP IV (Mus musculus, UniProt P28843); test: DPP IV inhibitory activity in vivo: DPP IV activity in plasma of ICR mouse after single oral dose; settings: oral 3 mg/kg, compared with Alogliptin and Vildagliptin (LAF237), FIG. 1-6
T1 construct: from tissue; host or cells: plasma of ICR mouse
T1 sequence (P28843 37-760 limits assumed): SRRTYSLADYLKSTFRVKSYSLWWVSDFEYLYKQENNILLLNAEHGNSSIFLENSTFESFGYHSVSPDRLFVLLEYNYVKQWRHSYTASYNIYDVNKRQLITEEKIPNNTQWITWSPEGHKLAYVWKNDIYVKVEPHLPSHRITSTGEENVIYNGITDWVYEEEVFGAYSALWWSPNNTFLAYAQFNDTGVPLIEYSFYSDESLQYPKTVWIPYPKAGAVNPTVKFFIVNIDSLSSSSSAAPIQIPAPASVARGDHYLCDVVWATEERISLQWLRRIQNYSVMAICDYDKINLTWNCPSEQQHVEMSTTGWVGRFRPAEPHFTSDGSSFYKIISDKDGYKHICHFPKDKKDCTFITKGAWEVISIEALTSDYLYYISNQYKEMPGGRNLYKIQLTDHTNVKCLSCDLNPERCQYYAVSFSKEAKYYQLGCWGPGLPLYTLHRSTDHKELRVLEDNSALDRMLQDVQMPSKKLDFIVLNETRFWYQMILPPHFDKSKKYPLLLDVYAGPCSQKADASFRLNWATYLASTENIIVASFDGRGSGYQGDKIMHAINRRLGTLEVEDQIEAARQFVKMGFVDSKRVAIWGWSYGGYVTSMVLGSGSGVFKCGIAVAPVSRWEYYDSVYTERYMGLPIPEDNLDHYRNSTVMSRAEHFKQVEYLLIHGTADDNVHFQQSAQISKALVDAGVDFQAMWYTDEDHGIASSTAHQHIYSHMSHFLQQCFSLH
Procedure: Animals: ICR mouse (8-10 weeks old; sex: male; 25 g-30 g of body weight, purchased from Shanghai SLAC Laboratory Animal Center).
Meanwhile the solvent group was used as blank control. The blood was taken from orbital venous plexus of the mouse before administration, and 30, 60, 2 h, 4 h, 6 h, 8 h and […] after administration, respectively and loaded into Eppendorf tube (Qizhong Industrial (Shanghai) co., Ltd.) treated by anticoagulant. The plasma was obtained by centrifugation and DPP IV activity was determined.

normal ICR mouse = test: Oral glucose tolerance test (OGTT), acute hypoglycemic effect of single oral dose; format: in vivo; settings: single dose 3 mg/kg by gavage, glucose 2.5 g/kg after 6 hours, FIGS. 7-10
Procedure: Acute hypoglycemic effect of single dose through mouth on the normal ICR mouse
Animal: ICR mouse (8-10 weeks old, sex: male, weight: 25-30 g, purchased from Shanghai SLAC Laboratory Animal Center).
1. Two days before the experiment, the food consumption was recorded and the daily food consumption of each animal was calculated;
2. The animals fasted overnight (⅓ of daily food consumption was provided, about 2 g);
3. The blood glucose was measured on the second day.
4. The medicament was administrated through gavage (1 mouse/min). After 6 hours, the blood glucose was measured. Glucose was administrated through gavage according to the body weight (2.5 g/kg). The blood glucose value was monitored at 30 min, 60 min, 90 min, and 120 min after administration.

[1] = molecular target: dipeptidyl peptidase 7 (DPP 7) (Homo sapiens, UniProt Q9UHL4); test: DPP 7 activity screening; format: biochemical; settings: N.I. = No Inhibition
How it was run: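 Sample dissolved in DMSO, final DMSO kept at a level not affecting activity; tested at a single concentration from preliminary screening (e.g. 20 μg/mL). Dose-response data fitted to sigmoidal variable-slope model with bottom and top fixed at 0 and 100.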

human DPP 8 = molecular target: T2, human DPP 8 (Homo sapiens, UniProt Q6V1X1); test: DPP 8 activity screening (Ala-Pro-AMC fluorescence); format: biochemical; settings: N.I. = No Inhibition
T2 construct: made in house; host or cells: insect cells, baculovirus Bac-to-Bac
T2 sequence (Q6V1X1 whole entry): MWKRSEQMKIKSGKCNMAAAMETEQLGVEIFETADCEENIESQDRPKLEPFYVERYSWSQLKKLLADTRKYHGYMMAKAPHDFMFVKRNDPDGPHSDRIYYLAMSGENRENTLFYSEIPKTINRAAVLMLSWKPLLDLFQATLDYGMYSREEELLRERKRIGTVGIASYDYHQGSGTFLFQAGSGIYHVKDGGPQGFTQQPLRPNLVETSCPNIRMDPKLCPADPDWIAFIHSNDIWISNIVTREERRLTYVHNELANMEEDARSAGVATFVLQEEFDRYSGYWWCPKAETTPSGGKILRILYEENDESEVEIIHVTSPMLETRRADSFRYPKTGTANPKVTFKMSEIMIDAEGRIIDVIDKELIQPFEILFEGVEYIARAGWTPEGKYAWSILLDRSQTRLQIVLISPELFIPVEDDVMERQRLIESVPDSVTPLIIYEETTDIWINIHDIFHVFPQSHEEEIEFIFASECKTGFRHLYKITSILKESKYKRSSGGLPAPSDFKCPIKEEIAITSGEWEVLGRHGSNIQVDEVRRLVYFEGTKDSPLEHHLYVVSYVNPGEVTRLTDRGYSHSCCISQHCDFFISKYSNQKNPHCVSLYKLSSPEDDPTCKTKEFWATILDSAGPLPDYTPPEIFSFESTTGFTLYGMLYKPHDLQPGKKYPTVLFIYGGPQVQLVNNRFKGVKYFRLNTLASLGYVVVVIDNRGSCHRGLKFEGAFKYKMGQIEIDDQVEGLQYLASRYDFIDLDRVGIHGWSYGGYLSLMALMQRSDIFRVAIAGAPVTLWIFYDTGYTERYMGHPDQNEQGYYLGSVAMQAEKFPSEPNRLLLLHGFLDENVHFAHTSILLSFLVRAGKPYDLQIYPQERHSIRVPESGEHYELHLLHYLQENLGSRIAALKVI
How it was run: (§1)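 Insect-cell baculovirus-expressed human enzymes hydrolyse Ala-Pro-AMC; AMC release monitored kinetically as fluorescence rate (ex 355/em 460 nm). Primary screen at a single concentration (e.g. 20 μg/mL); dose–response fitted to variable-slope sigmoid with bottom/top fixed at 0 and 100.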

Human DPP 9 = molecular target: T3, Human DPP 9 (Homo sapiens, UniProt Q86TI2); test: DPP 9 activity screening (Ala-Pro-AMC fluorescence); format: biochemical; settings: N.I. = No Inhibition
T3 construct: made in house; host or cells: insect cells, baculovirus Bac-to-Bac
T3 sequence (Q86TI2 whole entry): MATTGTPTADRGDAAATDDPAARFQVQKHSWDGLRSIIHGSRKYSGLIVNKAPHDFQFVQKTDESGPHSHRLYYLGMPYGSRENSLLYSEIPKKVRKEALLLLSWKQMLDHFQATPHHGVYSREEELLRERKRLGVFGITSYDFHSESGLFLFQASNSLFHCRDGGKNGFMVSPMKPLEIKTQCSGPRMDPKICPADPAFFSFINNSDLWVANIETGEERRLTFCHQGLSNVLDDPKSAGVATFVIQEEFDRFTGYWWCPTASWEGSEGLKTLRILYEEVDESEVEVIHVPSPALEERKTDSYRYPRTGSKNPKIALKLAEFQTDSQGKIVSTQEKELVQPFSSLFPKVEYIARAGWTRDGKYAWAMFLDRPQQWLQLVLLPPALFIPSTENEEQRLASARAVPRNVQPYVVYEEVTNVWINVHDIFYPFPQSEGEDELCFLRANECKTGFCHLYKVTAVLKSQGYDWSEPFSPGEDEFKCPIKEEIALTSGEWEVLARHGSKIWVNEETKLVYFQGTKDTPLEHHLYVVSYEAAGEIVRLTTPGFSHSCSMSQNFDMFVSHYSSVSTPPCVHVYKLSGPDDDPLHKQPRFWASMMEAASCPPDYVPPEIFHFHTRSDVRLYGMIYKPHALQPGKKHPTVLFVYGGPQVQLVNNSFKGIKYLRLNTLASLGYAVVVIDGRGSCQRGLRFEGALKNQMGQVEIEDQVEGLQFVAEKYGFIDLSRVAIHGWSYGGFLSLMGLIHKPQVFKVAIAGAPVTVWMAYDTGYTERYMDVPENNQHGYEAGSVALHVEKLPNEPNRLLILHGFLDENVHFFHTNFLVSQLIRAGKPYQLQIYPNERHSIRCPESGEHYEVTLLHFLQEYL
How it was run: as §1

human DPP IV = molecular target: T4, human DPP IV (Homo sapiens, UniProt P27487); test: DPP IV activity screening (Ala-Pro-AMC fluorescence); format: biochemical
T4 construct: extracellular fragment of protease DPP IV (aa29-766); made in house; host or cells: baculovirus expression system Bac-to-Bac
T4 sequence (P27487 29-766): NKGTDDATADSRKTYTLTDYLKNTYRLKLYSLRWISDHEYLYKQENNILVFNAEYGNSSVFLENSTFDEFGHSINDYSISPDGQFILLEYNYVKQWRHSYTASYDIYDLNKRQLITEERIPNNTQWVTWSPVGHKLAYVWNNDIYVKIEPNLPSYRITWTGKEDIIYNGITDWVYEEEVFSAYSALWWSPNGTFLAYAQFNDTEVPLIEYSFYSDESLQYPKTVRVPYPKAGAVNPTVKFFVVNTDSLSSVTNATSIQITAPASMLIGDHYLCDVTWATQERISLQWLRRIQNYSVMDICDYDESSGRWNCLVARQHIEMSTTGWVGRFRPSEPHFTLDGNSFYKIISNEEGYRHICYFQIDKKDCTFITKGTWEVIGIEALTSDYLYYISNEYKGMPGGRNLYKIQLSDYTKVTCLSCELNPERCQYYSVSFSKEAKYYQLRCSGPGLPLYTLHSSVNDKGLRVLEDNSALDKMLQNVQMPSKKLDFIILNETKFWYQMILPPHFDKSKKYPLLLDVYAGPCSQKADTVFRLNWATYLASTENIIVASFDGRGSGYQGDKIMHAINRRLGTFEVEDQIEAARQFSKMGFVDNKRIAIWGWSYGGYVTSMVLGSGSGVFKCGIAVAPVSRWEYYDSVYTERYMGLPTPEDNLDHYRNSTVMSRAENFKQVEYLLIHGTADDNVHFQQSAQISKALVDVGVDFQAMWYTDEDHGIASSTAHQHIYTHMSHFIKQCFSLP
How it was run: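 DPP IV activity is taken as the linear rate of fluorescence change at 460 nm. Samples are dissolved in DMSO and screened at a single concentration (e.g. 20 μg/mL). Dose-response data are fit to a variable-slope sigmoidal model with bottom and top fixed at 0 and 100.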

FAP = molecular target: T5, FAP (Homo sapiens, UniProt Q12884); test: FAP inhibition (Table 1); format: biochemical; settings: N.I. = No Inhibition
T5 sequence (Q12884 1-760): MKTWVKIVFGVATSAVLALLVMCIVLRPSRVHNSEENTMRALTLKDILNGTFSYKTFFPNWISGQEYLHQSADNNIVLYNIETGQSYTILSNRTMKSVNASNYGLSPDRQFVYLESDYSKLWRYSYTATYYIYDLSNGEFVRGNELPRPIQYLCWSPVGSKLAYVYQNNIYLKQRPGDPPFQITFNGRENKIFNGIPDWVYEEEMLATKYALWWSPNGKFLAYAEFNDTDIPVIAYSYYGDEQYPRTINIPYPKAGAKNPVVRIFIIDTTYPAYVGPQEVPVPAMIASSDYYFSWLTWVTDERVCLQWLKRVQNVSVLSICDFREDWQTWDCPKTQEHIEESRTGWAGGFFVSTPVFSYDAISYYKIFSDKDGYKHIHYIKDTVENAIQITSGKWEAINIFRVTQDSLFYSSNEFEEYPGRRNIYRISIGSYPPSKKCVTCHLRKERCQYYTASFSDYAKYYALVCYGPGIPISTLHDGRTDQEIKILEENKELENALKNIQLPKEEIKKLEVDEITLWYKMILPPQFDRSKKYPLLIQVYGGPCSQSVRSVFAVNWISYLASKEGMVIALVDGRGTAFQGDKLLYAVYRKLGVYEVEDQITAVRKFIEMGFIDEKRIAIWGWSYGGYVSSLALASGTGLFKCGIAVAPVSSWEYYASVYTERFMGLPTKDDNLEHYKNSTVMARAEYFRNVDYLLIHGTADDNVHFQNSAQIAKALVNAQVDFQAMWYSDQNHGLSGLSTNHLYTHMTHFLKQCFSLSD

N#Cc1ccccc1Cn1c(N2CCC[C@@H](N)C2)nc2cc(COCc3ccccc3)sc2c1=O [DC291402]
DPP IV activity of ICR mouse plasma after single dose (given as hypoglycemic ability in vivo) (DPP IV): comparable to that of Alogliptin (3 mg), and better than that of Vildagliptin (LAF237, 15 mg) | hypoglycemic ability in vivo, oral glucose tolerance test (normal ICR mouse): comparable to that of Alogliptin

N#Cc1ccccc1Cn1c(N2CCC[C@@H](N)C2)nc2c(C(=O)NC3CCOCC3)csc2c1=O [DC291034]
hypoglycemic ability in vivo, oral glucose tolerance test (normal ICR mouse): comparable to that of Alogliptin

CCOC(=O)CNC(=O)c1csc2c(=O)n(Cc3ccccc3C#N)c(N3CCC[C@@H](N)C3)nc12 [DC291010]
DPP IV activity of ICR mouse plasma after single dose (given as hypoglycemic ability in vivo) (DPP IV): comparable to that of Alogliptin (3 mg), and better than that of Vildagliptin (LAF237, 15 mg)

N#Cc1ccccc1Cn1c(N2CCC[C@@H](N)C2)nc2cc(CO)sc2c1=O [DC291408]
DPP IV activity of ICR mouse plasma after single dose (given as hypoglycemic ability in vivo) (DPP IV): comparable to that of Alogliptin (3 mg), and better than that of Vildagliptin (LAF237, 15 mg)

CCOC(=O)CCNC(=O)c1csc2c(=O)n(Cc3ccccc3C#N)c(N3CCC[C@@H](N)C3)nc12 [DC291041]
DPP IV activity of ICR mouse plasma after single dose (given as hypoglycemic ability in vivo) (DPP IV): comparable to that of Alogliptin (3 mg), and better than that of Vildagliptin (LAF237, 15 mg)

N#Cc1ccccc1Cn1c(N2CCC[C@@H](N)C2)nc2c(C#N)csc2c1=O [DC291036]
hypoglycemic ability in vivo, oral glucose tolerance test (normal ICR mouse): comparable to that of Alogliptin

CC(=O)OCc1cc2nc(N3CCC[C@@H](N)C3)n(Cc3ccccc3C#N)c(=O)c2s1 [DC291405]
DPP IV activity of ICR mouse plasma after single dose (given as hypoglycemic ability in vivo) (DPP IV): comparable to that of Alogliptin (3 mg), and better than that of Vildagliptin (LAF237, 15 mg)

N#Cc1ccccc1Cn1c(N2CCC[C@@H](N)C2)nc2cc(C(=O)N3CCCCC3)sc2c1=O [DC291422]
DPP IV activity of ICR mouse plasma after single dose (given as hypoglycemic ability in vivo) (DPP IV): comparable to that of Alogliptin (3 mg), and better than that of Vildagliptin (LAF237, 15 mg)

N#Cc1ccccc1Cn1c(N2CCC[C@@H](N)C2)nc2cc(COCc3ccccc3)sc2c1=O [Compound 94, (R)-2-((2-(3-aminopiperidin-1-yl)-6-((benzyloxy)methyl)-4-oxothieno-[3,2-d]pyrimidin-3(4H)-yl)methyl)-benzonitrile]
DPP 7 IC50 [1]: N.I. | IC50 (human DPP 8): 34.2 µM | IC50 (Human DPP 9): 55 µM | IC50 (human DPP IV): 0.0104 µM | IC50 (FAP): 96.8 µM

COCCCNC(=O)c1cc2nc(N3CCC[C@@H](N)C3)n(Cc3ccccc3C#N)c(=O)c2s1 [Compound 112, (R)-2-(3-aminopiperidin-1-yl)-3-(2-cyanobenzyl)-N-(3-methoxypropyl)-4-oxo-3,4-dihydrothieno[3,2-d]-pyrimidine-6-carboxamide]
DPP 7 IC50 [1]: N.I. | IC50 (human DPP 8): 69.1 µM | IC50 (Human DPP 9): 159 µM | IC50 (human DPP IV): 0.0238 µM | IC50 (FAP): 213 µM

N#Cc1ccccc1Cn1c(N2CCC[C@@H](N)C2)nc2c(CN3CCOCC3)csc2c1=O [Compound 55, (R)-2-((2-(3-aminopiperidin-1-yl)-7-(morpholinomethyl)-4-oxothieno-[3,2-d]pyrimidin-3(4H)-yl)methyl)-benzonitrile]
DPP 7 IC50 [1]: N.I. | DPP 8 IC50 (human DPP 8): N.I. | DPP 9 IC50 (Human DPP 9): N.I. | IC50 (human DPP IV): 0.0178 µM | FAP IC50 (FAP): N.I.

N#Cc1ccccc1Cn1c(N2CCC[C@@H](N)C2)nc2cc(C(=O)NCc3ccc(C(F)(F)F)cc3)sc2c1=O [Compound 103, (R)-2-(3-aminopiperidin-1-yl)-3-(2-cyanobenzyl)-4-oxo-N-(4-(trifluoromethyl)benzyl)-3,4-dihydrothieno[3,2-d]pyrimidine-6-carboxamide]
DPP 7 IC50 [1]: N.I. | DPP 8 IC50 (human DPP 8): N.I. | IC50 (Human DPP 9): 86.8 µM | IC50 (human DPP IV): 0.0538 µM | IC50 (FAP): 145 µM

CCOC(=O)CNC(=O)c1csc2c(=O)n(Cc3ccccc3C#N)c(N3CCC[C@@H](N)C3)nc12 [Compound 58, (R)-ethyl 2-(2-(3-aminopiperidin-1-yl)-3-(2-cyanobenzyl)-4-oxo-3,4-dihydrothieno[3,2-d]pyrimidine-7-carboxamido)acetate]
DPP 7 IC50 [1]: N.I. | IC50 (human DPP 8): 14.3 µM | DPP 9 IC50 (Human DPP 9): N.I. | IC50 (human DPP IV): 0.00872 µM | FAP IC50 (FAP): N.I.

N#Cc1ccccc1Cn1c(N2CCC[C@@H](N)C2)nc2c(CN3CCOCC3)csc2c1=O [DC291005]
DPP IV activity of ICR mouse plasma after single dose (given as hypoglycemic ability in vivo) (DPP IV): comparable to that of Alogliptin (3 mg), and better than that of Vildagliptin (LAF237, 15 mg)

N#Cc1ccccc1Cn1c(N2CCC[C@@H](N)C2)nc2c(C(=O)NC3CCCCC3)csc2c1=O [Compound 80, (R)-2-(3-aminopiperidin-1-yl)-3-(2-cyanobenzyl)-N-cyclohexyl-4-oxo-3,4-dihydrothieno[3,2-d]pyrimidine-7-carboxamide]
DPP 7 IC50 [1]: N.I. | IC50 (human DPP 8): 25.7 µM | IC50 (Human DPP 9): 115 µM | IC50 (human DPP IV): 0.026 µM | IC50 (FAP): 28.7 µM

N#Cc1ccccc1Cn1c(N2CCC[C@@H](N)C2)nc2c(C(=O)NC3CC3)csc2c1=O [Compound 65, (R)-2-(3-aminopiperidin-1-yl)-3-(2-cyanobenzyl)-N-cyclopropyl-4-oxo-3,4-dihydrothieno[3,2-d]pyrimidine-7-carboxamide]
DPP 7 IC50 [1]: N.I. | IC50 (human DPP 8): 44.8 µM | IC50 (Human DPP 9): 137 µM | IC50 (human DPP IV): 0.0302 µM | IC50 (FAP): 75.5 µM

COC(=O)c1cc2nc(N3CCC[C@@H](N)C3)n(Cc3ccccc3C#N)c(=O)c2s1 [Compound 38, (R)-methyl 2-(3-aminopiperidin-1-yl)-3-(2-cyanobenzyl)-4-oxo-3,4-dihydrothieno[3,2-d]pyrimidine-6-carboxylate]
DPP 7 IC50 [1]: N.I. | DPP 8 IC50 (human DPP 8): N.I. | DPP 9 IC50 (Human DPP 9): N.I. | IC50 (human DPP IV): 0.0115 µM | FAP IC50 (FAP): N.I.
